Measured values published in patent US10681909B2, “Herbicidal triazoles” (FMC Corporation, priority 2014, dated 2020).

Experiments:
[1] = test system: oilseed rape; assay: Test C preemergence; type: in vivo, Brassica napus; settings: for Plant response rating (scale of 0 to 100 where 0 is no effect and 100 is complete control): Oilseed Rape, preemergence; for Oilseed Rape plant response rating (0 to 100): Preemergence, visual rating after 13 to 15 d
Excerpt: Seeds of plant species selected from blackgrass (Alopecurus myosuroides), ryegrass, Italian (Italian ryegrass, Lolium multiflorum), wheat (winter wheat, Triticum aestivum), galium (catchweed bedstraw, Galium aparine), corn (Zea mays), crabgrass, large (large crabgrass, Digitaria sanguinalis), foxtail, giant, (giant foxtail, Setaria faberii), johnsongrass (Sorghum halepense), lambsquarters (Chenopodium album), morningglory (Ipomoea coccinea), nutsedge, yellow (yellow nutsedge, Cyperus esculentus), pigweed (Amaranthus retroflexus), ragweed (common ragweed, Ambrosia elatior), soybean (Glycine max), barnyardgrass (Echinochloa crus-galli), oilseed rape (Brassica napus), waterhemp (common waterhemp, Amaranthus rudis), and velvetleaf (Abutilon theophrasti) were planted into a blend of loam soil and sand and treated preemergence with test chemicals formulated in a non-phytotoxic solvent mixture which included a surfactant. At the same time, plants selected from these crop and weed species and also chickweed (common chickweed, Stellaria media), oat, wild (wild oat, Avena fatua), and kochia (Kochia scoparia), were planted in pots containing Sunshine Redi-Earth® planting medium comprising spaghnum peat moss, vermiculite, starter nutrients and dolomitic limestone and treated with postemergence applications of test chemicals formulated in the same manner. Plants ranged in height from 2 to 18 cm (1- to 4-leaf stage) for postemergence treatments. […] A dash (-) response means no test result.

[2] = test system: bluegrass; assay: Test D preemergence; type: in vivo, Poa annua; settings: for Plant response rating (0 to 100), Bluegrass: 16 g ai/ha, 0 is no effect, 100 is complete control; for Plant response rating: Bluegrass: scale 0 to 100
Excerpt: (§1) Seeds of plant species selected from bluegrass (annual bluegrass, Poa annua), blackgrass (Alopecurus myosuroides), canarygrass (Phalaris minor), chickweed (common chickweed, Stellaria media), galium (catchweed bedstraw, Galium aparine), bromegrass, down (downy bromegrass, Bromus tectorum), Russian thistle (Salsola kali), field poppy (Papaver rhoeas), field violet (Viola arvensis), foxtail, green (green foxtail, Setaria viridis), deadnettle (henbit deadnettle, Lamium amplexicaule), ryegrass, Ital. (Italian ryegrass, Lolium multiflorum), kochia (Kochia scoparia), lambsquarters (Chenopodium album), oilseed rape (Brassica napus), pigweed (Amaranthus retroflexus), chamomile (scentless chamomile, Matricaria inodora), speedwell (bird's-eye speedwell, Veronica persica), barley, spring (spring barley, Hordeum vulgare), wheat, spring (spring wheat, Triticum aestivum), buckwheat, wild (wild buckwheat, Polygonum convolvulus), wild mustard (Sinapis arvensis), oat, wild (wild oat, Avena fatua), radish, wild (wild radish, Raphanus raphanistrum), […]), barley, winter (winter barley, Hordeum vulgare), and wheat, winter (winter wheat, Triticum aestivum) were planted into a silt loam soil and treated preemergence with test chemicals formulated in a non-phytotoxic solvent mixture which included a surfactant. At the same time, these species were planted in pots containing Sunshine Redi-Earth® planting medium comprising spaghnum peat moss, vermiculite, starter nutrients and dolomitic limestone and treated with postemergence applications of the test chemicals formulated in the same manner. Plants ranged in height from 2 to 18 cm (1- to 4-leaf stage). Treated plants and controls were maintained in a controlled growth environment for 14 to 21 d after which time all species were compared to controls and visually evaluated. […] A dash (-) response means no test result.

[3] = test system: galium; assay: Test D preemergence; type: in vivo, Galium aparine; settings: for Plant response rating (0 to 100), Galium: 16 g ai/ha, 0 is no effect, 100 is complete control; for Plant response rating: Galium: scale 0 to 100
Excerpt: as §1

[4] = test system: bromegrass, down; assay: Test D preemergence; type: in vivo, Bromus tectorum; settings: for Plant response rating (0 to 100), Bromegrass, Down: 16 g ai/ha, 0 is no effect, 100 is complete control; for Plant response rating: Bromegrass, Down: scale 0 to 100
Excerpt: as §1

[5] = test system: Russian thistle; assay: Test D preemergence; type: in vivo, Salsola kali; settings: for Plant response rating (0 to 100), Russian Thistle: 16 g ai/ha, 0 is no effect, 100 is complete control; for Plant response rating: Russian Thistle: scale 0 to 100
Excerpt: as §1

[6] = test system: lambsquarters; assay: Test D preemergence; type: in vivo, Chenopodium album; settings: for Plant response rating (0 to 100), Lambsquarters: 16 g ai/ha, 0 is no effect, 100 is complete control; for Plant response rating: Lambsquarters: scale 0 to 100
Excerpt: as §1

[7] = test system: blackgrass; assay: Test D postemergence; type: in vivo, Alopecurus myosuroides; settings: scale 0 to 100
Excerpt: as §1

[8] = test system: canarygrass; assay: Test D postemergence; type: in vivo, Phalaris minor; settings: scale 0 to 100
Excerpt: as §1

[9] = test system: bromegrass, down; assay: Test D postemergence; type: in vivo, Bromus tectorum; settings: scale 0 to 100
Excerpt: as §1

[10] = test system: chamomile; assay: Test D postemergence; type: in vivo, Matricaria inodora; settings: scale 0 to 100
Excerpt: as §1

[11] = test system: wheat, spring; assay: Test D postemergence; type: in vivo, Triticum aestivum; settings: scale 0 to 100
Excerpt: as §1

[12] = test system: wheat, winter; assay: Test D postemergence; type: in vivo, Triticum aestivum; settings: scale 0 to 100
Excerpt: as §1

[13] = test system: buckwheat, wild; assay: Test D postemergence; type: in vivo, Polygonum convolvulus; settings: scale 0 to 100
Excerpt: as §1

## Fc1ccc(-c2nc(OCC(F)(F)F)n(Cc3ccnc(C(F)(F)F)c3)n2)cc1 [Compound 30]
[1]; 125 g ai/ha
  Plant response rating (scale of 0 to 100 where 0 is no effect and 100 is complete control): 100
[1]; 250 g ai/ha
  Plant response rating (scale of 0 to 100 where 0 is no effect and 100 is complete control): 100
[1]; 31 g ai/ha
  Oilseed Rape plant response rating (0 to 100): 80
[1]; 62 g ai/ha
  Oilseed Rape plant response rating (0 to 100): 80
[2]
  Plant response rating (0 to 100), Bluegrass: 75
[2]; 31 g ai/ha
  Plant response rating: Bluegrass: 75
[2]; 62 g ai/ha
  Plant response rating: Bluegrass: 100
[2]; 125 g ai/ha
  Plant response rating: Bluegrass: 100
[3]
  Plant response rating (0 to 100), Galium: 70
[3]; 62 g ai/ha
  Plant response rating: Galium: 80
[3]; 125 g ai/ha
  Plant response rating: Galium: 85
[4]
  Plant response rating (0 to 100), Bromegrass, Down: 35
[4]; 31 g ai/ha
  Plant response rating: Bromegrass, Down: 40
[4]; 62 g ai/ha
  Plant response rating: Bromegrass, Down: 55
[4]; 125 g ai/ha
  Plant response rating: Bromegrass, Down: 70
[5]
  Plant response rating (0 to 100), Russian Thistle: 80
[5]; 62 g ai/ha
  Plant response rating: Russian Thistle: 90
[5]; 125 g ai/ha
  Plant response rating: Russian Thistle: 90
[6]
  Plant response rating (0 to 100), Lambsquarters: 85
[6]; 62 g ai/ha
  Plant response rating: Lambsquarters: 95
[6]; 125 g ai/ha
  Plant response rating: Lambsquarters: 95
[7]; 16 g ai/ha
  Plant response rating: Blackgrass: 45
[7]; 31 g ai/ha
  Plant response rating: Blackgrass: 60
[7]; 62 g ai/ha
  Plant response rating: Blackgrass: 65
[7]; 125 g ai/ha
  Plant response rating: Blackgrass: 75
[8]; 16 g ai/ha
  Plant response rating: Canarygrass: 55
[8]; 31 g ai/ha
  Plant response rating: Canarygrass: 65
[8]; 62 g ai/ha
  Plant response rating: Canarygrass: 75
[8]; 125 g ai/ha
  Plant response rating: Canarygrass: 80
[9]; 16 g ai/ha
  Plant response rating: Bromegrass, Down: 30
[9]; 31 g ai/ha
  Plant response rating: Bromegrass, Down: 45
[9]; 62 g ai/ha
  Plant response rating: Bromegrass, Down: 65
[9]; 125 g ai/ha
  Plant response rating: Bromegrass, Down: 65
[10]; 16 g ai/ha
  Plant response rating: Chamomile: 20
[10]; 31 g ai/ha
  Plant response rating: Chamomile: 30
[10]; 62 g ai/ha
  Plant response rating: Chamomile: 40
[10]; 125 g ai/ha
  Plant response rating: Chamomile: 70
[11]; 16 g ai/ha
  Plant response rating: Wheat, Spring: 25
[11]; 31 g ai/ha
  Plant response rating: Wheat, Spring: 30
[11]; 62 g ai/ha
  Plant response rating: Wheat, Spring: 35
[11]; 125 g ai/ha
  Plant response rating: Wheat, Spring: 45
[12]; 16 g ai/ha
  Plant response rating: Wheat, Winter: 15
[12]; 31 g ai/ha
  Plant response rating: Wheat, Winter: 15
[12]; 62 g ai/ha
  Plant response rating: Wheat, Winter: 25
[12]; 125 g ai/ha
  Plant response rating: Wheat, Winter: 35
[13]; 16 g ai/ha
  Plant response rating: Buckwheat, Wild: 70
[13]; 31 g ai/ha
  Plant response rating: Buckwheat, Wild: 70
[13]; 62 g ai/ha
  Plant response rating: Buckwheat, Wild: 85
[13]; 125 g ai/ha
  Plant response rating: Buckwheat, Wild: 85

## FC(F)(F)COc1nc(-c2ccc(Cl)cc2)nn1Cc1ccnc(C(F)(F)F)c1 [Compound 31]
[1]; 125 g ai/ha
  Plant response rating (scale of 0 to 100 where 0 is no effect and 100 is complete control): 45
[1]; 250 g ai/ha
  Plant response rating (scale of 0 to 100 where 0 is no effect and 100 is complete control): 85
[1]; 31 g ai/ha
  Oilseed Rape plant response rating (0 to 100): 10
[1]; 62 g ai/ha
  Oilseed Rape plant response rating (0 to 100): 20
[2]
  Plant response rating (0 to 100), Bluegrass: 55
[2]; 31 g ai/ha
  Plant response rating: Bluegrass: 65
[2]; 62 g ai/ha
  Plant response rating: Bluegrass: 95
[2]; 125 g ai/ha
  Plant response rating: Bluegrass: 100
[3]
  Plant response rating (0 to 100), Galium: 70
[3]; 62 g ai/ha
  Plant response rating: Galium: 80
[3]; 125 g ai/ha
  Plant response rating: Galium: 90
[4]
  Plant response rating (0 to 100), Bromegrass, Down: 25
[4]; 31 g ai/ha
  Plant response rating: Bromegrass, Down: 25
[4]; 62 g ai/ha
  Plant response rating: Bromegrass, Down: 50
[4]; 125 g ai/ha
  Plant response rating: Bromegrass, Down: 55
[5]
  Plant response rating (0 to 100), Russian Thistle: 70
[5]; 62 g ai/ha
  Plant response rating: Russian Thistle: 85
[5]; 125 g ai/ha
  Plant response rating: Russian Thistle: 90
[6]
  Plant response rating (0 to 100), Lambsquarters: 75
[6]; 62 g ai/ha
  Plant response rating: Lambsquarters: 85
[6]; 125 g ai/ha
  Plant response rating: Lambsquarters: 90
[7]; 16 g ai/ha
  Plant response rating: Blackgrass: 45
[7]; 31 g ai/ha
  Plant response rating: Blackgrass: 65
[7]; 62 g ai/ha
  Plant response rating: Blackgrass: 70
[7]; 125 g ai/ha
  Plant response rating: Blackgrass: 80
[8]; 16 g ai/ha
  Plant response rating: Canarygrass: 65
[8]; 31 g ai/ha
  Plant response rating: Canarygrass: 75
[8]; 62 g ai/ha
  Plant response rating: Canarygrass: 80
[8]; 125 g ai/ha
  Plant response rating: Canarygrass: 80
[9]; 16 g ai/ha
  Plant response rating: Bromegrass, Down: 25
[9]; 31 g ai/ha
  Plant response rating: Bromegrass, Down: 45
[9]; 62 g ai/ha
  Plant response rating: Bromegrass, Down: 50
[9]; 125 g ai/ha
  Plant response rating: Bromegrass, Down: 70
[10]; 16 g ai/ha
  Plant response rating: Chamomile: 20
[10]; 31 g ai/ha
  Plant response rating: Chamomile: 35
[10]; 62 g ai/ha
  Plant response rating: Chamomile: 65
[10]; 125 g ai/ha
  Plant response rating: Chamomile: 80
[11]; 16 g ai/ha
  Plant response rating: Wheat, Spring: 30
[11]; 31 g ai/ha
  Plant response rating: Wheat, Spring: 35
[11]; 62 g ai/ha
  Plant response rating: Wheat, Spring: 40
[11]; 125 g ai/ha
  Plant response rating: Wheat, Spring: 45
[12]; 16 g ai/ha
  Plant response rating: Wheat, Winter: 20
[12]; 31 g ai/ha
  Plant response rating: Wheat, Winter: 20
[12]; 62 g ai/ha
  Plant response rating: Wheat, Winter: 20
[12]; 125 g ai/ha
  Plant response rating: Wheat, Winter: 30
[13]; 16 g ai/ha
  Plant response rating: Buckwheat, Wild: 65
[13]; 31 g ai/ha
  Plant response rating: Buckwheat, Wild: 75
[13]; 62 g ai/ha
  Plant response rating: Buckwheat, Wild: 75
[13]; 125 g ai/ha
  Plant response rating: Buckwheat, Wild: 75
